This passage reports Activity, Stability and IC50 results from ChEMBL document CHEMBL4422691, “Identification of C-6 as a New Site for Linker Conjugation to the Taccalonolide Microtubule Stabilizers” (J Nat Prod, 2019).

Each structure is given as a SMILES string. pIC50: −log10 of the molar value. Calls of active or inactive are those of the source. The rule behind the calls is not given here.

Data set [1] deals with T1, Tubulin (Homo sapiens) (UniProt P68371+Q9H4B7+P0DPH7+P68366+Q13509+Q71U36+P04350+Q3ZCM7+P07437+P68363+Q9BQE3+Q6PEY2+Q13885+Q9BVA1+Q9BUF5). The experiment in a line: Induction of microtubule stabilization in human HCC1937 cells assessed as bundling of microtubules at 5 uM after 24 hrs by immunofluorescence assay. It counts as cell-based.
Data set [2] in a line: Stability of the compound in aqueous solution after 24 hrs. Conditions: buffer. It counts as physicochemical.
The target in data set [3] is T1, Tubulin (Homo sapiens). In words: Induction of microtubule stabilization in human HCC1937 cells at 5 uM after 6 hrs by live cell fluorescence imaging. It counts as cell-based.
The target of data set [4] is T1, Tubulin (Homo sapiens). The experiment in a line: Induction of microtubule stabilization in human HCC1937 cells assessed as co-localization of compound with microtubule at 5 uM after 24 hrs by fluorescence assay. In kind it is cell-based.
Data set [5] deals with HeLa. In words: Antiproliferative activity against human HeLa cells after 48 hrs by sulforhodamine B assay. In kind it is functional, cell-based.
Data set [6] concerns the target T2, Tubulin (Sus scrofa) (UniProt P02554+P02550). The experiment in a line: Induction of porcine tubulin polymerization at 5 to 10 uM measured at 1 min interval for 1 hr. It counts as protein assay.
Data set [7] addresses T2, Tubulin (Sus scrofa). In words: Induction of porcine tubulin polymerization measured at 1 min interval for 1 hr. It counts as protein assay.

T2 sequence (P02550 whole entry, looked up): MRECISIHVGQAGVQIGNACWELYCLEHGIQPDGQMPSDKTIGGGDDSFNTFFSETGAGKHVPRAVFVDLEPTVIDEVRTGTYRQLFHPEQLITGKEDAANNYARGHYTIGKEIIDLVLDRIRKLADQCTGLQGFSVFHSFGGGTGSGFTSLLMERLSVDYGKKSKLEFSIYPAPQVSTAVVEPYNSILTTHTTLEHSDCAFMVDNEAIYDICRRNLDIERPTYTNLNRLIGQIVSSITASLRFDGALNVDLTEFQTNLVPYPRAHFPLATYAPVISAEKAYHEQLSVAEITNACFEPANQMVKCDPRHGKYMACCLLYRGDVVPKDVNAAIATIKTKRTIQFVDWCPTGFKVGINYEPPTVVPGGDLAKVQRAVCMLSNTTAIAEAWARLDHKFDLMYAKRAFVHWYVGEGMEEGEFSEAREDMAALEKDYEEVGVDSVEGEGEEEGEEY
T2 sequence (P02554 whole entry, looked up): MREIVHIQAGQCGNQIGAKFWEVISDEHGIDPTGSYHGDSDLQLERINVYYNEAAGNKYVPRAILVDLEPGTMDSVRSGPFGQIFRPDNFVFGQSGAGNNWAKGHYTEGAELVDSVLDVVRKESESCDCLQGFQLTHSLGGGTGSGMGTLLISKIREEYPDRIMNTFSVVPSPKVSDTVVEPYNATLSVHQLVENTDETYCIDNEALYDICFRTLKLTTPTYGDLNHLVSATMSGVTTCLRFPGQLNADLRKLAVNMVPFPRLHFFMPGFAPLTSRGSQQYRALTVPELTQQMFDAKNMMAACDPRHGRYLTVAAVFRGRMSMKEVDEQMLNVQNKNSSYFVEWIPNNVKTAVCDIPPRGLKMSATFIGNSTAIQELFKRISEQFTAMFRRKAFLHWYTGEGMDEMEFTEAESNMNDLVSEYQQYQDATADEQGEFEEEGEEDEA

As to `CC(=O)O[C@H]1[C@H]2[C@@H]([C@@H](O)[C@@H](OC(=O)CCCCn3cc(COc4ccc5c(c4)Oc4cc(O)ccc4C54OC(=O)c5ccccc54)nn3)[C@H]3C[C@@H]4O[C@@H]4[C@H](OC(C)=O)[C@]23C)[C@@H]2[C@@H](O)[C@@H]3[C@H]([C@H](C)[C@H]4O[C@]45OC(=O)[C@@](C)(O)[C@]35C)[C@@]2(C)[C@H]1OC(C)=O` (some centres not stated), the outcome in data set [1], in data set [3], in data set [4] and in data set [6] was Active. The Stability entry in data set [2] is “Stable”. In addition, the pIC50 in data set [5] is 5.60.

For the compound `CC(=O)O[C@H]1[C@H]2[C@H]([C@@H]3[C@@H](O)[C@@H]4[C@H]([C@H](C)[C@@H]5O[C@@]56OC(=O)[C@@](C)(O)[C@]46C)[C@@]3(C)[C@H]1OC(C)=O)[C@@H](O)C(=O)[C@H]1C[C@@H]3O[C@@H]3[C@H](OC(C)=O)[C@]21C`, the Activity result in data set [7] is “Dose-dependent effect”.

What is called pIC50 is −log10 of the IC50, conventionally taken in molar units.
